{"source": "ChEMBL document CHEMBL1201862", "about": "“PubChem BioAssay data set” (2004)", "key": {"Nonstructural protein 1": {"target": "Nonstructural protein 1 (Influenza A virus, UniProt Q194T2)", "sequence (Q194T2 whole entry)": "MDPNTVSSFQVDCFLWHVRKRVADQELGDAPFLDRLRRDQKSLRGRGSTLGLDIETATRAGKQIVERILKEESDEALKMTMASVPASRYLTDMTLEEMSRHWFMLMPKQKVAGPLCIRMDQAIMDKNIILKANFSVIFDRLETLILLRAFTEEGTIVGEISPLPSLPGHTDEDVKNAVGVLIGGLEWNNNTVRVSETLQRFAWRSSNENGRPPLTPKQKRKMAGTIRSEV", "assay_type": "functional, Influenza A virus (A/California/07/2009(H1N1))"}, "[1]": {"target": "Glucose-6-phosphate 1-dehydrogenase (Homo sapiens, UniProt P11413)", "sequence (P11413 whole entry)": "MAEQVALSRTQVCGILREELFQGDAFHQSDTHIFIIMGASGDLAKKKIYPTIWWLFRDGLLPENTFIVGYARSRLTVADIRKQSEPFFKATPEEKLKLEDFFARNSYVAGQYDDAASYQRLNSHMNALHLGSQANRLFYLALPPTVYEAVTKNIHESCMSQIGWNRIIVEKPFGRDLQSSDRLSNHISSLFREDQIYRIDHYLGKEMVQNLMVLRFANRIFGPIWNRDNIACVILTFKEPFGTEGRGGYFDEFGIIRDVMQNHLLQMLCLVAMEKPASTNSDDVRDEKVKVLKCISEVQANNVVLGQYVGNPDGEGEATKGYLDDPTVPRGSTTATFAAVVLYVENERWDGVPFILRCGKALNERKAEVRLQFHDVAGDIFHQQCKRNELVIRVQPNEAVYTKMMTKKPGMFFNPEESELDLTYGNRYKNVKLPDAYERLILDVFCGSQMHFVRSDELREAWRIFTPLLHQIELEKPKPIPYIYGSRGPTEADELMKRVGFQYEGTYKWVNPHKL", "assay": "inhibition of Homo sapiens G6PD, dose series – biochemical, fluorescence, selectivity assay for P. falciparum G6PD inhibitor project, dose response (AID 504792)", "assay_type": "functional"}, "Beta-galactosidase": {"target": "Beta-galactosidase (Escherichia coli, UniProt Q8VNN2)", "sequence (Q8VNN2 whole entry)": "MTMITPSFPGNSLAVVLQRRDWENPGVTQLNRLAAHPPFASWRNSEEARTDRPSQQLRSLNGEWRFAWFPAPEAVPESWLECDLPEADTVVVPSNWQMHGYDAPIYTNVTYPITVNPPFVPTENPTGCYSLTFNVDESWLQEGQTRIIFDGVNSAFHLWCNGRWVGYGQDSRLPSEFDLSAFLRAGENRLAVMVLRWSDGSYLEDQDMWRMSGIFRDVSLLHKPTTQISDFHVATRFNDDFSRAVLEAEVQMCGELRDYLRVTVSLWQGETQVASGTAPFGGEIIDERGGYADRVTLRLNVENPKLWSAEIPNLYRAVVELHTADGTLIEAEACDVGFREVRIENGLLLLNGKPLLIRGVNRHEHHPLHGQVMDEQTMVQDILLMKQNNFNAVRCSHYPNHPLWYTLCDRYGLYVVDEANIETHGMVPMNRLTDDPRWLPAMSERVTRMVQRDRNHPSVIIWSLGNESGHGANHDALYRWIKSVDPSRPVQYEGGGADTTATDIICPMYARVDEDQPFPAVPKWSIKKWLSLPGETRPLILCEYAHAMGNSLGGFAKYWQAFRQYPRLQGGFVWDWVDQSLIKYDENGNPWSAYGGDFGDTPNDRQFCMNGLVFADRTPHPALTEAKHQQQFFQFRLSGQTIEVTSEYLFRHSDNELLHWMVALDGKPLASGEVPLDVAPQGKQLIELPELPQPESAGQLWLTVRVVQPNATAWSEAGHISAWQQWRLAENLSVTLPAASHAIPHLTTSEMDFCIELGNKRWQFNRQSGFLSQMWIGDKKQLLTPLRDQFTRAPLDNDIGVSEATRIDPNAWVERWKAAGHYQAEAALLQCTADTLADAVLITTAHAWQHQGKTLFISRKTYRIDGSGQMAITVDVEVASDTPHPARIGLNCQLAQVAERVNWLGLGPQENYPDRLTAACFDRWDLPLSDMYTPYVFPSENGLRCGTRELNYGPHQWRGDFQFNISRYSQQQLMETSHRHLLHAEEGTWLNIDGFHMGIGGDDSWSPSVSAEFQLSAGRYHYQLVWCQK", "assay": "PubChem AID 485352", "assay_type": "functional"}, "[2]": {"target": "T1, Type-1 angiotensin II receptor (Homo sapiens, UniProt P30556)", "T1 sequence (P30556 whole entry)": "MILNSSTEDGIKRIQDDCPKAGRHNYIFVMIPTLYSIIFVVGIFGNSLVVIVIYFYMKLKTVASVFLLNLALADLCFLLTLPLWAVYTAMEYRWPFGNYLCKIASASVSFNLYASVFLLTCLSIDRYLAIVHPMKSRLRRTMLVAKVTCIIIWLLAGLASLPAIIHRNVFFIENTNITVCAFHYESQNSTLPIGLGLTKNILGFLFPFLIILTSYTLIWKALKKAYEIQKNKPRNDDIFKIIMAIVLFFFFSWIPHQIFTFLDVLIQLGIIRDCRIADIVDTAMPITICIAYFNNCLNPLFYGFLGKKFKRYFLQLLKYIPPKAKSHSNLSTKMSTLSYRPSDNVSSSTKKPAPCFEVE", "assay": "antagonism of angiotensin II type 1 receptor – cell-based, uHTS hits, selectivity assay for APJ receptor antagonist project, dose response (AID 463214);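 further: antagonist potency against angiotensin II stimulated AT1 response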", "assay_type": "functional"}, "[3]": {"target": "T2, Heat shock factor protein 1 (Mus musculus, UniProt P38532)", "T2 sequence (P38532 whole entry)": "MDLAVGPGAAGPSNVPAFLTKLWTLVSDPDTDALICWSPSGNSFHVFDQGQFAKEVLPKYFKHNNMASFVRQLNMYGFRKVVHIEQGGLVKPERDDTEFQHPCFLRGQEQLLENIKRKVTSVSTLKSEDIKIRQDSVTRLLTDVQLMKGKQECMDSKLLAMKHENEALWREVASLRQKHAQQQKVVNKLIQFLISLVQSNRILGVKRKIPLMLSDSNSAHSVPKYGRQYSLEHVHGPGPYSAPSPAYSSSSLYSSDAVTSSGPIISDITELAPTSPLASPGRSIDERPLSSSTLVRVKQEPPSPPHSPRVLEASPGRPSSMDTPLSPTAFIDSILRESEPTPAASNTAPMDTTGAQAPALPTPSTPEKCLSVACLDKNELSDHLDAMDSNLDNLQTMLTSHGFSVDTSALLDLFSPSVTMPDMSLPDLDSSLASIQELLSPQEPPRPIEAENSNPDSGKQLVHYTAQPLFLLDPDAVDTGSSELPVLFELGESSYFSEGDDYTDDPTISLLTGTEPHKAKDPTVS", "assay": "decrease of HSF1-responsive luciferase luminescence – cell-based, NIH3T3, dose retest, confirmation (AID 2382);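 further: NIH3T3 fibroblasts with HSF1-driven luciferase reporter stressed by proteasome inhibitor MG132; luminescence from HSF1-driven luciferase expression after 8 hours of MG132 stress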", "assay_type": "functional"}, "[4]": {"target": "T3, Long-chain-fatty-acid--AMP ligase FadD28 (Mycobacterium tuberculosis, UniProt P9WQ59)", "T3 sequence (P9WQ59 whole entry)": "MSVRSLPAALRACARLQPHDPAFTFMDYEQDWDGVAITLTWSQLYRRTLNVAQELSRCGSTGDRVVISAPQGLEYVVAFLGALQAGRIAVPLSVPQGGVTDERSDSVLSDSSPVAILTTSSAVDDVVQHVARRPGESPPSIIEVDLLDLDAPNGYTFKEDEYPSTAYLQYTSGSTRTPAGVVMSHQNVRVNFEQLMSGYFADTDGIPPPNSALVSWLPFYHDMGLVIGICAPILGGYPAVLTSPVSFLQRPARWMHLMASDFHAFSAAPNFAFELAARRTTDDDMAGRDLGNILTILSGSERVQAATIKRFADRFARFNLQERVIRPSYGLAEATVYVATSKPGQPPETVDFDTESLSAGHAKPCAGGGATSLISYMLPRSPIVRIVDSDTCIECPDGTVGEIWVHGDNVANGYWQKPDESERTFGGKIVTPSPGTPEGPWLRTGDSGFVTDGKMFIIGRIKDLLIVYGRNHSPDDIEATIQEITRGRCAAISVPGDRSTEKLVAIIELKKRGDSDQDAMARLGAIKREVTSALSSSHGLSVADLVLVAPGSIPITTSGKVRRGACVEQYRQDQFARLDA", "assay": "Fluorescence polarization aasay to screen for inhibitors that compete for the binding of FadD28 to a bisubstrate Measured in Biochemical System Using Plate Reader - 2147-01_Inhibitor_Dose_CherryPick_Activity.", "assay_type": "functional, Mycobacterium tuberculosis H37Rv"}, "[5]": {"target": "Voltage-gated N-type calcium channel alpha-1B subunit/Amyloid beta A4 precursor protein-binding family A member 1 (Homo sapiens, UniProt Q00975+Q02410)", "sequence (Q00975 whole entry)": "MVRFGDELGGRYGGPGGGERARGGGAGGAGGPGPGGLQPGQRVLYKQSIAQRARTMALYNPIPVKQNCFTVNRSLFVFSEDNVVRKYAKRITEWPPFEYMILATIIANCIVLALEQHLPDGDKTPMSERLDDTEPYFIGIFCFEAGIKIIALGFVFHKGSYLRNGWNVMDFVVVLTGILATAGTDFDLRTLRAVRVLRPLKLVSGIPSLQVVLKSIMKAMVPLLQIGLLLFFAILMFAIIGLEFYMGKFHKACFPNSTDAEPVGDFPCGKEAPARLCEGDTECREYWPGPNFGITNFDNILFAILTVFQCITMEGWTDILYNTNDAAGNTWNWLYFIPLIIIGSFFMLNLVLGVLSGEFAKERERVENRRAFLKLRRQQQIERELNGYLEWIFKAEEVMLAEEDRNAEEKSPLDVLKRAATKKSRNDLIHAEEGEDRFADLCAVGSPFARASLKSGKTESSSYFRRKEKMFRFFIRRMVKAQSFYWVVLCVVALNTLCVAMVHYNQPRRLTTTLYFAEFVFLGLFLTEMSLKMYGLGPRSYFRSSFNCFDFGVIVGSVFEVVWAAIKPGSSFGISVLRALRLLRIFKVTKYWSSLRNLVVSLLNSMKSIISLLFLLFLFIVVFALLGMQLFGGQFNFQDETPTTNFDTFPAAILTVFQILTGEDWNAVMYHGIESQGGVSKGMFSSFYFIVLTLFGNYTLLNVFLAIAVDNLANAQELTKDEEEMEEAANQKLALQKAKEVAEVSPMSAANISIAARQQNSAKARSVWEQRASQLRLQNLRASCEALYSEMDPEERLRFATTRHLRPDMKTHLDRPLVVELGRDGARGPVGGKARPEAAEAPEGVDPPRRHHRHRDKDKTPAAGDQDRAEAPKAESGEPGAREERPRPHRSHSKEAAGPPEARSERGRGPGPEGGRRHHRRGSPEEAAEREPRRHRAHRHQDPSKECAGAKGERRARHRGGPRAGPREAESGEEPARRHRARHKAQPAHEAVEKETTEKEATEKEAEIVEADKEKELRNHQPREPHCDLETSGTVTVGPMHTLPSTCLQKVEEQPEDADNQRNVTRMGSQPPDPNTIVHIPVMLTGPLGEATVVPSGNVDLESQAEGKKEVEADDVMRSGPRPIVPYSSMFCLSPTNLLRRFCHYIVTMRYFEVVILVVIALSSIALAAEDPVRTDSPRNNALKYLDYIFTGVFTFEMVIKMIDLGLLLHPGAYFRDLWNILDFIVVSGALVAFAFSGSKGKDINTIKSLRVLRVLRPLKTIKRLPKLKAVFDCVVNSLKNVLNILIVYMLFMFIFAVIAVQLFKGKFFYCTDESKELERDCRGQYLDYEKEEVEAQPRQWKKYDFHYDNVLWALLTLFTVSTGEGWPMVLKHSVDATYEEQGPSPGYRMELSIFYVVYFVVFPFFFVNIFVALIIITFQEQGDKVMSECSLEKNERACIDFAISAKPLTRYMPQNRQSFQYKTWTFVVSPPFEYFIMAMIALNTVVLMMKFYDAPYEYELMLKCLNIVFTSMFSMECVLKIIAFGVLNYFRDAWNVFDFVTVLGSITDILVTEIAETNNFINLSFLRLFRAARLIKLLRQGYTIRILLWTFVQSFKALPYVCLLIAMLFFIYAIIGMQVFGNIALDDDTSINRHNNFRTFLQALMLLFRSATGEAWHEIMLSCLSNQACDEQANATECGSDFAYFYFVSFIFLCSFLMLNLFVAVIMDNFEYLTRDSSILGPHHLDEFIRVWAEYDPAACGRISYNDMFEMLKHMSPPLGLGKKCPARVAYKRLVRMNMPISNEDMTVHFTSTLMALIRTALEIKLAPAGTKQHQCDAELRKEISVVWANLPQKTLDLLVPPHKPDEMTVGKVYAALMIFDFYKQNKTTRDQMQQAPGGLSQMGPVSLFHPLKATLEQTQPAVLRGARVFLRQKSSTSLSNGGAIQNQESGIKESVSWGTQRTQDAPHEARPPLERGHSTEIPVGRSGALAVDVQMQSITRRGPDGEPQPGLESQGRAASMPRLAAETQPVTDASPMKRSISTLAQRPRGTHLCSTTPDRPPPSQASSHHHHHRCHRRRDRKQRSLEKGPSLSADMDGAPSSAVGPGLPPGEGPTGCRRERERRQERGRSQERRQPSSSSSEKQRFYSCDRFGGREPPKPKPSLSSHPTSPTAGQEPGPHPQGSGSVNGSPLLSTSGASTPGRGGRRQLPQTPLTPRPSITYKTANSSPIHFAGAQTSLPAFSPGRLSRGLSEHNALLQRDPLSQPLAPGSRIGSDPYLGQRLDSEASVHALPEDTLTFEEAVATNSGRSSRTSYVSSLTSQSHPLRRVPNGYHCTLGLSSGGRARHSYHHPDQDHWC", "sequence (Q02410 whole entry)": "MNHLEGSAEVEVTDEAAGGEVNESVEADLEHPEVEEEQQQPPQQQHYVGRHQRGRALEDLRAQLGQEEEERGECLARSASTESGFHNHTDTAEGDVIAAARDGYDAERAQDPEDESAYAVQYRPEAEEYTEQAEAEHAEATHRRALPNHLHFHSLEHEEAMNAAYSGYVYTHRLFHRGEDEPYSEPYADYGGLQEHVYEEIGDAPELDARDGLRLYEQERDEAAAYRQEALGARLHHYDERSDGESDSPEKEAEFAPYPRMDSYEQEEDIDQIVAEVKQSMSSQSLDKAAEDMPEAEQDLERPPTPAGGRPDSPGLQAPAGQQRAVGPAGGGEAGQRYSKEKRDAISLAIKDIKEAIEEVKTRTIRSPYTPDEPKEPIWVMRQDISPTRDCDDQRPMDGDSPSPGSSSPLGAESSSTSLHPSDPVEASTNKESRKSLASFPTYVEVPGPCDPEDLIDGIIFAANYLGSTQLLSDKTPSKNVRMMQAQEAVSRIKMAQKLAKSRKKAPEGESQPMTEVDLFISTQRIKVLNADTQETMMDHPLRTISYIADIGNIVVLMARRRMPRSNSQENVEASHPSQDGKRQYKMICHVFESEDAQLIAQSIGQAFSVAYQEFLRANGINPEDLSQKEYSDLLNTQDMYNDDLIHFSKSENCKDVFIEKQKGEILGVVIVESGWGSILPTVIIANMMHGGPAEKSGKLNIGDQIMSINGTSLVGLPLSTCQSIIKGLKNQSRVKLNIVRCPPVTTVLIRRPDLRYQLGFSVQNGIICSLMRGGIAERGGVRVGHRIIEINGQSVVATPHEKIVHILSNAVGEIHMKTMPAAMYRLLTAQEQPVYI", "assay_type": "protein assay"}, "[6]": {"target": "T4, Tyrosine-protein phosphatase non-receptor type 7 (Homo sapiens, UniProt P35236)", "T4 sequence (P35236 whole entry)": "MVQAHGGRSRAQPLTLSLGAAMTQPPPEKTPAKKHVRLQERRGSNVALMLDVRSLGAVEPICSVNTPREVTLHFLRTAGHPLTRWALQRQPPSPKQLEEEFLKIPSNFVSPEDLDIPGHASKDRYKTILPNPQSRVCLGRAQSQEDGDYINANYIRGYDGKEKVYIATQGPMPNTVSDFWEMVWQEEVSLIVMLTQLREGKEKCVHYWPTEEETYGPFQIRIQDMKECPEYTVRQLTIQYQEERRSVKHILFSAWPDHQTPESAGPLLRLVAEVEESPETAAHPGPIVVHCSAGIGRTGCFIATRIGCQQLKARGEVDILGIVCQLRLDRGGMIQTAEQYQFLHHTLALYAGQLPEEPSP", "assay": "HTS HePTP Fluorescent Assay using OMFP substrate for In Vitro dose response studies. [Related pubchem assays (depositor defined):AID1059, AID1077, AID1784, AID2068, AID2085, AID435032, AID521]", "assay_type": "functional"}}, "note": "Activity calls are given as the source filed them."}
{"smiles": "O=S(=O)(O)c1cc(Cl)cc(N=Nc2ccc(O)cc2O)c1O", "values": [{"measurement": "IC50", "setting": "Nonstructural protein 1", "value": "8.3 µM (active)"}]}
{"smiles": "C=C1C(=O)O[C@@H]2C[C@@H](C)[C@@H]3C=CC(=O)[C@@]3(C)[C@@H](OC(=O)CC(=O)O[C@H]3[C@@H]4C(=C)C(=O)O[C@@H]4C[C@@H](C)[C@@H]4C=CC(=O)[C@]43C)[C@H]12", "values": [{"measurement": "IC50", "setting": "[1]", "value": "> 80 µM (inactive)"}, {"measurement": "EC50", "setting": "Beta-galactosidase", "value": "> 40 µM (inactive)"}, {"measurement": "IC50", "setting": "[2]", "value": "6.05 µM (active)"}, {"measurement": "EC50", "setting": "[3]", "value": "0.98 µM (active)"}]}
{"smiles": "O=C(O)c1cccc(-n2cccc2/C=C2/NC(=O)N(c3ccc(Cl)cc3)C2=O)c1", "values": [{"measurement": "AC50", "setting": "[4]", "value": "58 µM (active)"}, {"measurement": "IC50", "setting": "[5]", "value": "9.85 µM (active)"}, {"measurement": "IC50", "setting": "[6]", "value": "6.06 µM (active)"}]}
